We go through two molecules from US9364413B2, “Method for anti-aging treatment by surfactin in cosmetics via enhancing sirtuin” (UMO International Co., Ltd., priority 2014, dated 2016).

Peptide text beside a SMILES is read from it.

In one series the test system is collagen. The experiment in a line: Sircol soluble collagen assay. Type of series: cell-based, mouse. The settings on record: 24 hours. As to the method:
Sircol™ soluble collagen assay kit was used for analysis the total concentration of collagen in the culture media and the general method is described as follows:
Place 0.1 ml of the test samples and the standards at different concentrations in separate 1.5 mL centrifuge tubes. Add 1 mL of dye reagent and vortex for 35 minutes, followed by centrifugation at 12000 rpm for 10 minutes and remove the supernatant. Carefully remove the residue water at the side of the tube to avoid contact with the precipitate. Add 1 mL of Alkali reagent to dissolve the precipitate and transfer 0.2 mL to a 96-well pate after the color has developed and measure absorbance at 570 nm using an ELISA reader.

In the next series the test system is sirtuin 1 gene. The experiment in a line: mRNA expression of the long-lived gene sirtuin 1 by real-time quantitative PCR. The note with it: mouse embryo fibroblasts. Type of series: cell-based. The source says:
Total RNA was extracted from human skin fibroblasts and mouse embryo fibroblasts using TRIzol reagent (Invitrogen, USA), analyzed by RNA gel electrophoresis and subjected to RT-PCR for amplification of human skin fibroblasts sirtuin 1 and sirtuin 3 and mouse embryo fibroblasts sirtuin 1. GeneBan was used to identify well known sequences of sirtuins and GCG program was utilized to search for sequences with high similarity. A primer set was designed for polymerase chain reaction (PCR), followed by 1.2% agarose gel electrophoresis of a small portion of the reaction product to confirm the expected product has been amplified. Once confirmed, the remaining product was subjected to low-melting point agar gel electrophoresis, the product was excised from the gel and the specific size of DNA fragment was purified by gel extraction for cloning. The purified DNA fragment was ligated with the cloning vector pGEM-T-easy vector (pGEM-T-easy cloning kit, Promega, USA) before transformed into the competent cells. Finally, after small scale culture, cloning vector was extracted for sequencing, and the sequence data was compared using the BLAST program of NCBI. Part of the human skin fibroblast sirtuin 1 and sirtuin 3 and mouse embryo fibroblasts sirtuin 1 were correctly cloned by the abovementioned cloning procedures and the selected clones were transformed into competent cells again for extraction of plasmid with high purity for future experiments.
RNA is easily degraded in natural environment by RNase and thus all tools used must be autoclaved and dried in an oven prior to conducting experiments and wear gloves and masks during the procedures. Quickly add 800 μL TRIzol™ reagent to the culture dish of the experimental group and transfer the washed off cells to a sterile tube. Add chloroform to the tube in the volume of ⅕ of the total volume of TRIzol™ reagent and shake vigorously for 30 seconds. After incubation at room temperature for 15 minutes, centrifuge at 13200 rpm for 15 minutes at 4° C. and transfer the supernatant to a new 1.5 mL eppendorf. RNA is present in the aqueous phase of the supernatant. Transfer the supernatant to another clean 1.5 mL eppendorf and add Isopropanol in the volume of ½ of TRIzol™ reagent and high salt solution (1.2 M Sodium Chloride and 0.8 M Sodium citrate), mix well and incubate at −20° C. for 30 minutes, followed by centrifugation at 13200 rpm for 15 minutes at 4° C. to precipitate RNA; remove the supernatant carefully and add 800 μL of 100% absolute ethanol to wash and centrifuge at 13200 rpm for 10 minutes at 4° C. before washing with 100% ethanol. Carefully remove the supernatant and dry the RNA precipitate at 55° C. for 5 minutes. Dissolve the RNA precipitate in 15 μL DEPC water and incubate at 55° C. for 10 minutes and store at −80° C. freezer for future use.
Place 5 μg of total RNA in a 200 μL eppendorf and adjust the volume to 13 μL with DEPC water, add 1 μL of oligo(dT) 18, 10 mM dNTPs and incubate on ice. Add 4 μl of 5×AMV buffer and 1 μl of AMV (40 units/μL) and mix well. […]
The fluorescent dye SYBR green I can be embedded in the groove of double-stranded DNA and generate fluorescence when excited by a halogen light and its intensity can then be measured. When SYBR green I is not embedded in the groove of double-stranded DNA, its fluorescence background value is very low; and when it starts to integrate into the amplified target gene sequence, the fluorescence signal of SYBR green I will also be increased accordingly. […]

In series [1] the test system is mouse embryo fibroblasts. The experiment in a line: cell proliferation of mouse embryo fibroblasts. Type of series: cell-based. The note with it: 48 hours.
Series [2] concerns mouse embryo fibroblasts. Kind of series: anti-photoaging: cell survival after UV-A irradiation (MTT method). Type of series: cell-based. The settings on record: for cell survival rate after UV irradiation: 24 hours. The procedure: After incubation for 24 hours, cell survival rates were measured by the MTT method.
(In general: Tetrazolium dyes change colour on reduction, which living cells bring about.)

The subject of series [3] is mouse embryo fibroblasts. Kind of series: anti-oxidation: cell survival after hydrogen peroxide treatment (MTT method). Type of series: cell-based. As to the method: Following subculture of the mouse embryo fibroblasts and incubation for 4 hours for attachment, hydrogen peroxide was used to treat the cells as the source of oxidation. The cells were treated with 100, 150, 200 and […] of hydrogen peroxide before addition of 25, 50, 75 and 100 μM of surfactin for another 24 hours. Cell survival rate was measured by the MTT method.

Series [4] in a line: skin penetration of FITC-labeled dexamethasone in mice. The settings on record: 0.2, 0.5, 1 and 2% surfactin, 1 hour, back of mice, fluorescence intensity. Type of series: in vivo. As to the method: (§1) Before the experiment, the back of the mice was shaved. Mice aged 6-8 weeks were anesthetized by intraperitoneal injection using (Zoletil) and lay the animal flat before shaving the back with a electric razor and remove the remaining hair with hair removal cream. Place the animals in the cages with a warming light and provide water in each cage. Two groups are include in the experiment: for the control group, 100 μl of PBS (pH=7.4) was mixed with fluorescein isothiocyanate (FITC)-labeled HA or dexamethasone before added to 1 cm2 sterile cotton and affixed to the back of the mice; for the experimental group, FITC-labeled HA or dexamethasone was mixed with 0, 0.2, 0.5, 1, 2 and 5% surfactin for 1 hour.
(§2) At the end of 1 hour treatment, sacrificed the mice with CO2 asphyxiation, clean up the drug residue on the skin with ethanol and cut the skin on the back and embedded in Optimum cutting temperature compound (O.C.T) (SAKURA®, Japen) for cryosection (CM-2000, Leica, Germany).

A short description of series [5]: skin absorption of FITC-labeled hyaluronic acid in mice. Type of series: in vivo. The settings on record: 1 hour, back of mice. As to the method:
as §1, §2

A short description of series [6]: skin absorption of FITC-labeled poly-γ-glutamic acid in mice. The settings on record: 1, 2, 5, 10, 15 and 20% surfactin, 1 hour, back of mice, fluorescence intensity. Type of series: in vivo.
Series [7] can be described thus: percutaneous penetration of gold nanoparticles in mice. Type of series: in vivo. The note with it: 12.5 ppm surfactin, gold nanoparticles 2 nm, mice (BALB/c). The source says:
We applied the mix of gold nanoparticles and surfactin to the skin of mice for a certain period of time and collected the skin for cryosection. Because gold nanoparticles is self-luminous, optical microscope can be used to observe the content of fluorescence of gold nanoparticles in epidermis and dermis of the skin. The results indicated skin care paste obtained by conventional methods is not helpful for gold nanoparticle absorption by the skin due to its internal gel-mass like or gel-bundle like structure and thus gold nanoparticles were only found in the epidermis.

Series [8] can be described thus: emulsifying power in diesel, emulsification index (E24). Type of series: physicochemical. The procedure: After incubation at room temperature for 24 hours, emulsification index (E24) was measured.
The emulsifying power is one of the important indicator of surfactants, and present invention utilized the method published by Cooper et. al to measure the emulsification index of surfactants in diesel. Different concentrations of crude surfactin was dissolved in buffer solutions at pH 6.4, 7.4 and 8.4, and 2 ml of the dissolved mixture was added to a test tube containing 3 ml of diesel, vortex for 2 minutes and incubate at room temperature for 24 hours before measurement. The ration of height of the emulsifying phase and the total height of the solution multiplied by 100% will give the emulsification index of the test solution. The emulsifying power of oil products is represented as the emulsification index (E24), wherein the equation of E24 is shown as follows: E24(%)=(height of the emulsifying phase/total height of solution)×100%.

Series [9] is described as follows: foaming power, foam maximum density (MD). Type of series: physicochemical. The settings on record: buffer pH 7.4, more than 150 μg of surfactin, surfactin produced by Bacillus subtilis TH. The procedure:
Measure the height of the foam and calculate the foam maximum density (MD).
Surfactants are […] and present invention examined the foaming property of crude surfactin. The method developed by Razafindralambo et. al was referenced and different concentrations of crude surfactin was dissolved in a buffer solution with a pH at 7.4, vortex for 2 minutes and followed by incubation for 1 hour. The height of the foam was then measured and the foaming power is expressed as foam maximum density (MD) which is obtained by dividing the […].

A short description of series [10]: turbidity of diluted shampoo and corecervate formation. Type of series: physicochemical. The procedure: (1) Adjust the relative concentration of the shampoo to 0.01-1.0
Relative concentration=shampoo liquid (g)/(shampoo liquid (g)+water (g))
(2) Measure the transmittance rate (%, temperature at 40° C.) of the […] solution (1) and the turbidity is represented as =100−transmittance rate (%)

The conditions of series [11]: Razafindralambo et al.; cited from earlier work.

As for “palmitoyl pentapeptide-3 [reference compound]”, in the series with collagen, the “collagen effect compared with surfactin” value is listed as “not as good as surfactin”. Besides, the “collagen content in the cells” value in the series on collagen (Palmitoyl pentapeptide-3 3, 5, 8 and 10 μM) is recorded as “can also increase collagen content”.
On to `CC(C)CCCCCCCCC[C@@H]1CC(=O)N[C@@H](CCC(=O)O)C(=O)N[C@@H](CC(C)C)C(=O)N[C@H](CC(C)C)C(=O)N[C@@H](C(C)C)C(=O)N[C@@H](CC(=O)O)C(=O)N[C@H](CC(C)C)C(=O)N[C@@H](CC(C)C)C(=O)O1` [surfactin] (HELM PEPTIDE1{E.L.[dL].V.D.[dL].L}|CHEM1{[CC(C)CCCCCCCCC[C@H](CC(=O)[*:1])O[*:2]]}$PEPTIDE1,CHEM1,1:R1-1:R1|PEPTIDE1,CHEM1,7:R2-1:R2$$$V2.0), for which the “concentration with the best effect in enhancement of sirtuin 1 expression” value in the series with sirtuin 1 gene (0-100 μM tested, 6-48 hours) was 50 µM. The “expression of the sirtuin 1 gene” value in the series with sirtuin 1 gene (6 hours, 50 μM and 75 μM surfactin) was “enhance expression of the sirtuin 1 gene”; with sirtuin 1 gene (12 hours, 25 μM surfactin), “enhancement of expression of the sirtuin 1 gene”; in the series on sirtuin 1 gene (36 hours, 50 μM and 100 μM surfactin), “enhancement of expression of the sirtuin 1 gene”; in the series on sirtuin 1 gene (48 hours, 50 μM surfactin), “enhancement of expression of the sirtuin 1 gene”. Also, in the series on mouse embryo fibroblasts [1] (0, 25, 50, 75 and 100 μM), the “mouse embryo fibroblast proliferation” value is recorded as “can enhance mouse embryo fibroblast proliferation”. Further, the “concentration with the best effect in inducing cell proliferation” value with mouse embryo fibroblasts [1] (followed by 50 μM) was determined as 75 µM. Moreover, the “cell proliferation compared with resveratrol and Palmitoyl pentapeptide-3” value in the series on mouse embryo fibroblasts [1] (resveratrol 0-30 μM, Palmitoyl pentapeptide-3 0-10 μM) is listed as “better effect in inducing cell proliferation”. In addition, the “cell survival rate after UV irradiation” value is “increase cell survival rate” in the series with mouse embryo fibroblasts [2] (UV 10 J/cm^2, 25, 50, 75, 100 and 125 μM surfactin); “increase cell survival rate” in the series with mouse embryo fibroblasts [2] (UV 15 J/cm^2, 25, 50, 75, 100 and 125 μM surfactin). Moreover, the “concentration with the best protection after UV irradiation” value with mouse embryo fibroblasts [2] (UV 10 J/cm^2, 24 hours) is 75 µM; with mouse embryo fibroblasts [2] (UV 15 J/cm^2, 24 hours), 50 µM. Further, the “protective effect against hydrogen peroxide” value in the series with mouse embryo fibroblasts [3] (25, 50 and 75 μM surfactin) was “good protective effect”. Besides, in the series on mouse embryo fibroblasts [3] (hydrogen peroxide 100-250 μM, surfactin 24 hours, MTT), the “survival rate of mouse embryo fibroblasts treated with hydrogen peroxide” value is reported as “can increase the survival rate”. Also, the “collagen proliferation in mouse embryo fibroblasts” value in the series on collagen (25, 50, 75 and 100 μM, compared with PBS control) is listed as “great effects in increasing collagen proliferation”. Also, in the series on collagen, the “concentration with the best result in increasing collagen” value is 100 µM. Further, the “skin penetration of dexamethasone” value in series [4] is reported as “can enhance skin penetration of dexamethasone”. For the same molecule, in series [5] (0.2-5% surfactin, fluorescence intensity), the “hyaluronic acid (HA) absorption by the skin” value is given as “can increase hyaluronic acid (HA) absorption by the skin”. Also, in [5], the “surfactin concentration with the best effect on enhancing skin absorption of HA” value is listed as 1%. In addition, the “skin absorption of γ-GPA” value in series [6] is “can all increase skin absorption of γ-GPA”. The “percutaneous absorption of gold nanoparticles” value in series [7] is on record as “significantly enhance the percutaneous absorption of gold nanoparticles”. Also, in [8] (pH 6.4, 7.4 and 8.4 tested, E24 after 24 hours), the “pH of the best emulsifying power” value came out at 7.4. Also, the “concentration of the best emulsifying power” value in [8] (pH=7.4) was determined as 160 μg/m. Further, the “foam maximum density (MD), minimum” value in series [9] came to 1.23. For the same molecule, the “turbidity of the shampoo” value in [10] (compared with sodium laureth sulfate, 40° C., relative concentration 0.01-1.0) is reported as “can further reduce the turbidity of the shampoo”. In addition, the corecervate formation result in series [10] (shampoo during flushing / dilution) was “corecervate will occur at low concentrations”. Besides, the “MD value of surfactin” value in series [11] was at least 0.10.
